{"source": "patent US8912139B2", "about": "“Peptide compositions and methods for treating lung injury, asthma, anaphylaxis, angioedema, systemic vascular permeability syndromes, and nasal congestion” (The Board of Trustees of the University of Illinois, priority 2011, dated 2014)", "key": {"[1]": {"test_system": "LPS-induced sepsis", "assay": "Survival in LPS-induced murine model of sepsis", "type": "in vivo, mice", "settings": "for survival rate, LPS LD90, pre-treatment with Myr-EBIN: Myr-EBIN 1 microM/kg i.v. 30 min prior, 1 hr and 24 hrs after LPS", "method": "(n=11-15 mice/group, p<0.001 AP-IP3R3 vs control treatment (AP control) by ANOVA. Mice were anesthetized prior to retro-orbital i.v. injection of IP3R3 with a mixture of ketamine, 10 mg/ml; xylazine, 0.25 mg/ml and acepromazine, 0.25 mg/ml.\nCD-1 mice treated with indicated doses of IP3R3 peptide were i.p. injected with LPS at LD80 dose (50 mg/kg LPS) and were monitored for 5 days. Survival rate (%) was plotted vs. peptide dose in logarithm scale. The sigmoidal dose-response curve was fitted to the data points. n=10 mice/group. Mice were anesthetized prior to retro-orbital injection of peptide with 2.5% isoflurane in room air in an anesthesia induction chamber. Anesthesia was maintained during i.v. injection using a specially designed rodent facemask with a coaxial tube (Harvard Apparatus, AH 72-3026).\nMale CD1 mice were challenged by intraperitoneal (i.p.) injection of LD90 doses of LPS. The experimental and control groups received retro-orbital, intravenous (i.v.) injection of EBIN attached to the C-terminus of cell permeant antennapedia peptide (AP) or AP alone at a concentration of 1 microM/kg. Mice were injected tree times, 30 minutes prior to and 1 hr and 24 hrs after LPS administration. Mice were anesthetized prior to retro-orbital injection with a mixture of ketamine (10 mg/ml), xylazine (0.25 mg/ml), and acepromazine (0.25 mg/ml).\nFIG. 19 compares the effect of pre- and post treatment with EBIN (SEQ ID NO: 3) on lethality from LPS-induced sepsis. […] Male CD1 mice were challenged by intraperitoneal (i.p.) injection of LD90 doses of LPS. The experimental and control groups received tail vein (i.v.) injection of Myr-EBIN 30 min prior (pre-treatment) or 30 min after (post-treatment) LPS or Myr-control loss-of-binding peptide at a concentration of 1 microM/kg. Pre-treatment group, mice were injected tree times, 30 minutes prior to and 1 hr and 24 hrs after LPS administration; treatment group, mice were injected two times, 30 minutes and 24 hrs after LPS administration. Mice were anesthetized prior to retro-orbital injection with a mixture of ketamine (10 mg/ml), xylazine (0.25 mg/ml), and acepromazine (0.25 mg/ml).\nThe pharmacological effect of IP3R3 peptide was tested in LPS-induced murine model of sepsis. Male CD1 mice were challenged by intraperitoneal injection (i.p.) of LPS (30 mg/kg body weight) and infiltration of neutrophils in lung, a measure of lung inflammation was determined. Lungs were perfused with PBS, weighed, frozen and used for measuring lung myeloperoxidase (MPO) activity, signature of activated neutrophils. […] Furthermore, it was determined whether IP3R3 peptide protects from polymicrobial sepsis induced by cecal ligation and puncture (CLP). CLP causes lethal peritonitis that is accompanied by acute lung injury (ALI). It is well-excepted and clinically relevant method in experimental rodents.\nThe dose-response of IP3R3 peptide was further tested in LPS-induced murine model of sepsis. Male CD1 mice were challenged by i.p. injection of LPS at LD80 dose. Mice received a retro-orbital i.v. injection of IP3R3 peptide at doses 0.01, 0.033, 0.1, 0.33, 1.0, 3.3 and 10 μM per kg of the body weight. Mice were injected with IP3R3 peptide three times, 30 minutes prior to, and 1 and 24 hrs after LPS administration. A percent of survived animals in each group was plotted as a function of IP3R3 dose. […] The ED50 (effective dose, 50%) as 80 nM/kg was calculated using a three-parameter logistic equation: y=min+([…])/1+10^LogED50-x Where min and max are minimum and maximum of response.\nThe effect of EBIN on mortality rate from LPS-induced sepsis was determined. Mice received i.v. retro-orbital injection of AP-EBIN or AP control peptide, 30 minutes prior to and 1 hr after LPS administration at LD90 dose. […] In this experiment, Myr-EBIN was injected in tail vein 30 min and 24 hrs after LPS challenged. […] It is concluded that administration of EBIN prior to systemic inflammation has much higher beneficial outcome."}, "[2]": {"test_system": "HPAECs", "assay": "Agonist-induced intracellular calcium transient in HPAEC monolayers (Fura-2 340/380)", "type": "cell-based, Human", "settings": "1 μM Myr-peptide, 50 nM thrombin or 90 μM histamine", "method": "[Ca2+]i transient after stimulation of HPAEC monolayers with 50 nM thrombin (A) or 90 μM histamine (B). Mean value; n=20 cells. Arrow, time of stimulation.\n(§1) To determine the inhibitory properties of EBIN in cells, Human Pulmonary Aorta Endothelial Cell (HPAECs) monolayers pretreated with EBIN or with a control peptide at the concentration of 1 μM were challenged with thrombin. The interaction between EB3 and IP3R3 receptor was analyzed using a Western Blot analysis. […] EBIN but not a control peptide mitigated agonist-induced increase in intracellular calcium. [Ca2-F]i transient after stimulation of HPAEC monolayers with pro-inflammatory cytokines."}, "[3]": {"test_system": "IP3R", "settings": "background statement, MT destabilizing or stabilizing agents; cited from earlier work"}, "[4]": {"test_system": "HMVECs", "assay": "Thrombin-induced Ca2+ release from stores in HMVECs (Fura 2-AM 340/380 ratio)", "type": "cell-based", "settings": "5 μg/ml taxol for 20 min prior to thrombin stimulation", "method": "A. HMVECs pre-treated with AP-attached IP3R3 peptide or control (AP) peptide were loaded with Fura 2-AM and 340/380 ratio was calculated after stimulation of cells with thrombin (50 nM) in the absence and in the presence of extracellular Ca^2+. Arrow, time of thrombin addition. […] The increase is normalized to control non-treated cells from the same experiment (n=4).\nThe effects of IP3R peptide and taxol were compared in regulating Ca^2+ release."}, "[5]": {"test_system": "lung injury", "settings": "background statement; cited from earlier work"}, "[6]": {"molecular_target": "T1, EB3/IP3R3 interaction (Homo sapiens, UniProt Q9UPY8)", "T1 construct": "HPAECs pretreated with 1 μM AP-EBIN or control peptide (AP) were challenged with 50 nM thrombin; endogenous in cells; host or cells: HPAEC (human pulmonary aorta endothelial cells)", "T1 sequence (Q9UPY8 whole entry)": "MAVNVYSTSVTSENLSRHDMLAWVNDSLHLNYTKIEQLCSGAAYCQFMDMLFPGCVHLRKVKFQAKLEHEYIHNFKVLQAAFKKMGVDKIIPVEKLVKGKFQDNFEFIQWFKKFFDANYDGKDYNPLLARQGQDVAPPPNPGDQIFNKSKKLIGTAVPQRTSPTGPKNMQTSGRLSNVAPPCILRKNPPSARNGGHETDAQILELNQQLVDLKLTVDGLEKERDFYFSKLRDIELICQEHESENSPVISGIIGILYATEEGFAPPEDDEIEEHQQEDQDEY", "assay": "EB3-IP3R3 interaction by immunoprecipitation/Western blot in HPAECs challenged with thrombin", "type": "cell-based", "settings": "HPAECs pretreated with 1 μM AP-EBIN; 50 nM thrombin", "method": "HPAECs pretreated with 1 μM AP-EBIN or control peptide (AP) were challenged with 50 nM thrombin. The interaction between EB3 and IP3R3 was analyzed at different time-points after thrombin stimulation. EB3 was immune-precipitated with specific Abs and resulted precipitates were probed for EB3 and IP3R3.\nas §1"}, "[7]": {"test_system": "HPAECs", "assay": "NO production in HPAECs (porphyrinic NO electrodes)", "type": "cell-based, Human", "settings": "first 20 min", "method": "HPAECs were pretreated with control peptide (loss-of-activity) or Myr-EBIN and basal (A, in response to addition of L-arginin) and agonist-induced (B, thrombin and histamine) NO production was measured for the first 20 min stimulation.\n(§2) The activity of nitric oxide synthase 3(eNOS), an endothelial-specific enzyme that produces NO, is regulated by calcium signaling, particularly, through eNOS interaction with calmodulin, and is a known cause of hyperpermeability of endothelial barrier during inflammation. Because EBIN inhibits calcium signaling it was postulated that the barrier-protective effect of EBIN, in part, is due to inhibition of eNOS. Therefore, the effect of EBIN on basal and agonist-induced production of NO was measured. NO formation was measured using porphyrinic NO electrodes coupled to a FAS1 femtostat and a personal computer with electrochemical software (Gamry Instruments). The electrode current, which is proportional to NO concentration, was measured as a function of time."}, "[8]": {"test_system": "histamine-induced vasodilation", "assay": "Awake blood pressure measurement in mice, histamine-induced vasodilation", "type": "in vivo", "settings": "AP-EBIN 1 μM/kg i.v.", "method": "Awake Blood Pressure Measurement in Mice-Mice were anesthetized and surgically prepared for placement of arterial (carotid) and venous (external jugular) catheters. One hour after surgery the blood pressure was monitored directly using a pressure transducer. Subsequent intravenous (i.v.) injections of AP-EBIN peptide (1 μM/kg body weight; green) or control AP peptide (red) and histamine (10 mg/kg body weight) were performed through jugular vein catheter; the arrow indicates the time of injection.\nas §2"}, "[9]": {"test_system": "IgE-mediated anaphylactic reaction", "assay": "Subcutaneous vascular leak (Evans Blue) following IgE-mediated anaphylactic reaction", "type": "in vivo", "settings": "mice, intradermal IgE-HSA, HSA challenge 24 hr later; Myr-peptide 1 μM/kg i.v. 30 min prior to HSA", "method": "Mice received intradermal injection of IgE-HSA in the ear (A) and back (B) and 24 hr later, iv injection of Evans Blue and HSA (1-3) or saline (4-5). Groups 1 and 4 received saline, 2—control peptide (loss-of-binding) and 3 and 5—Myr-EBIN iv injection (1 μM/kg) 30 min prior to HSA. […] C. […] Evans Blue was extracted from ear tissue and Evans Blue concentration was measured at A=620 nm and normalized to the tissue weight. *, p<0.05, n=6 mice/group.\nAirway microvascular hyperpermeability, the result of elevated plasma VEGF, is one of the critical factors contributing to abnormal airway function in patients with classic asthma and its cough variant. Because acute allergic asthmatic response is mainly due to IgE-mediated hypersensitivity, we also determined whether EBIN protects from subcutaneous vascular leak following an IgE-mediated anaphylactic reaction. […] These date indicate that EBIN might be effectively used to improve the lung function and overall health of patients with chronic or acute forms of allergic asthma, and curtail the asthmatic inflammatory response."}, "[10]": {"settings": "50 mg/kg LPS, vs loss-of-binding peptide"}}, "note": "Entries after “also recorded” stand apart in the source; their conditions may differ. Ends that are not written are not given here. Peptide text beside a SMILES is read from it. * marks the point of attachment. Myristoyl = CCCCCCCCCCCCCC(=O)*"}
{"molecule": "Myr-EBIN: myristoylated EBIN (SEQ ID NO: 3) (Myristoyl-FTEIPTI)", "values": [{"measurement": "survival rate, LPS LD90, pre-treatment with Myr-EBIN", "setting": "[1]; [10]", "value": "significant increase"}, {"measurement": "agonist-induced increase in intracellular calcium ([Ca2+]i transient)", "setting": "[2]", "value": "mitigates agonist-induced increase in intracellular calcium"}]}
{"molecule": "COC(=O)Nc1nc2ccc(C(=O)c3cccs3)cc2[nH]1", "note": "[nocodazole]", "values": [{"measurement": "IP3-gated release of Ca2+", "setting": "[3]", "value": "inhibits IP3-gated release of Ca2+"}]}
{"molecule": "CC(=O)O[C@H]1C(=O)[C@@]2(C)[C@H]([C@H](OC(=O)c3ccccc3)[C@]3(O)C[C@H](OC(=O)[C@H](O)[C@@H](NC(=O)c4ccccc4)c4ccccc4)C(C)=C1C3(C)C)[C@]1(OC(C)=O)CO[C@@H]1C[C@@H]2O", "note": "[taxol]", "values": [{"measurement": "release of Ca2+ from ER in response to thrombin", "setting": "[4]", "value": "inhibits release of Ca^2+ from ER to the same extent as IP3R3 peptide"}, {"measurement": "lung injury in mice models", "setting": "[5]", "value": "attenuate the lung injury"}, {"measurement": "IP3-gated release of Ca2+", "setting": "[3]", "value": "inhibits IP3-gated release of Ca2+"}]}
{"molecule": "CC[C@H](C)[C@H](NC(=O)[C@H](C)NC(=O)[C@@H](NC(=O)[C@@H]1CCCN1C(=O)[C@@H](NC(=O)[C@H](CCC(=O)O)NC(=O)[C@@H](NC(=O)[C@H](Cc1c[nH]c2ccccc12)NC(=O)[C@H](CC(C)C)NC(=O)[C@H](CCCNC(=N)N)NC(=O)[C@H](C)NC(=O)[C@H](Cc1ccccc1)NC(=O)[C@@H](N)CCCCN)[C@@H](C)O)[C@@H](C)CC)[C@@H](C)O)C(=O)N[C@H](C(=O)O)[C@@H](C)O", "note": "[IP3R3 peptide, KFARLWTEIPTAIT] (H-KFARLWTEIPTAIT-OH)", "values": [{"measurement": "survival / mortality, LD50 LPS challenge", "setting": "[1]; 30 mg/kg LPS i.p., peptide i.v. 30 minutes prior to and 1 hr after LPS, vs AP control", "value": "marked improvement in survival rate; also recorded: mortality reduction"}, {"measurement": "toxicity within the dose range", "setting": "[1]; mice, 0.01 to 10 μM per kg i.v., three injections", "value": "low toxicity"}]}
{"molecule": "COc1cc2c(c(OC)c1OC)-c1ccc(OC)c(=O)cc1[C@@H](NC(C)=O)CC2", "note": "[colchicine]", "values": [{"measurement": "IP3-gated release of Ca2+", "setting": "[3]", "value": "inhibits IP3-gated release of Ca2+"}]}
{"molecule": "FTEIPTI (EB binding peptide) [EBIN]", "values": [{"measurement": "survival rate, LPS LD90, pre-treatment with Myr-EBIN", "setting": "[1]; [10]", "value": "reduced mortality"}, {"measurement": "survival rate, LPS LD90, post-treatment with Myr-EBIN", "setting": "[1]; 50 mg/kg LPS, Myr-EBIN 1 microM/kg tail vein 30 min and 24 hrs after LPS, vs loss-of-binding peptide", "value": "insignificant improvement in survival rate; also recorded: some but not significant improvement of the survival"}, {"measurement": "survival / mortality, LPS LD90, AP-EBIN", "setting": "[1]; CD1 mice, 50 mg/kg LPS i.p., AP-EBIN 1 microM/kg retro-orbital i.v. starting 30 minutes prior to LPS, 120-hr, vs AP, 50 mg/kg", "value": "marked improvement in survival rate; also recorded: reduced mortality"}, {"measurement": "interaction between EB3 and IP3R3, basal and after thrombin", "setting": "[6]", "value": "attenuated basal and thrombin-induced interaction between EB3 and IP3R3; also recorded: markedly reduced"}, {"measurement": "agonist-induced increase in intracellular calcium ([Ca2+]i transient)", "setting": "[2]", "value": "significantly inhibited the intracellular calcium flux"}, {"measurement": "basal NO production", "setting": "[7]; response to L-arginin", "value": "no effect; also recorded: did not affect basal NO level"}, {"measurement": "agonist-induced NO production", "setting": "[7]; thrombin and histamine", "value": "significantly attenuated agonist-induced NO production"}, {"measurement": "baseline (systolic) blood pressure", "setting": "[8]", "value": "no effect on baseline blood pressure"}, {"measurement": "histamine-induced blood pressure drop / vasodilation", "setting": "[8]; histamine 10 mg/kg i.v.", "value": "significantly inhibited histamine-induced vasodilation; also recorded: prevented blood pressure drop in response to histamine"}, {"measurement": "subcutaneous vascular leak (Evans Blue) in ear and back", "setting": "[9]", "value": "significantly attenuates subcutaneous vascular leak; also recorded: significantly attenuated"}]}
